From patent US20200338094A1, “Use of a Heterocyclic Bcl-xL Inhibitor and Related Analogs for Removing Senescent Cells in the Treatment of Eye Diseases and Other Age-Related Conditions” (Unity Biotechnology, Inc., priority 2015, published 2020) come the findings set out here.

Usually Ki stands for a dissociation constant, usually derived from enzyme kinetics or from competition with a known ligand. As a reminder, the EC50 is the concentration that produces a half-maximal response.

One assay addresses T1, Bcl-xL (Homo sapiens, UniProt Q07817).
T1 construct: purchased Sigma-Aldrich Co., St. Louis, Mo
The experiment in a line: Bcl inhibition homogeneous (AlphaScreen) binding assay, Bcl-xL. Particulars: read-out: Binding Affinities (Ki ± SD) Bcl-xL. The source says: (§1) This assay uses a homogenous assay technology based on oxygen channeling that is marketed by PerkinElmer Inc., Waltham, Mass.: see Eglen et al., Current Chemical Genomics, 2008, 1, 2-10. The test compound is combined with the target Bcl protein and a peptide representing the corresponding cognate ligand, labeled with biotin. The mixture is then combined with streptavidin bearing luminescent donor beads and luminescent acceptor beads, which proportionally reduces luminescence if the compound has inhibited the peptide from binding to the Bcl protein.
(§2) Bcl-2, Bcl-xL and Bcl-W are available from Sigma-Aldrich Co., St. Louis, Mo. Biotinylated BIM peptide (ligand for Bcl-2) and BAD peptide (ligand for Bcl-xL) are described in pre-grant publication US 2016/0038503 A1. AlphaScreen® Streptavidin donor beads and Anti-6×His AlphaLISA® acceptor beads are available from PerkinElmer.
(§3) To conduct the assay, a 1:4 dilution series of the compound is prepared in DMSO, and then diluted in assay buffer. In a 96-well PCR plate, the following are combined: 10 μL peptide, 10 μL test compound, and 10 μL BCL protein. The assay plate is incubated in the dark at room temperature for 24 h. The next day, donor beads and acceptor beads are combined, and […] is added to each well. After incubating in the dark for 30 minute, luminescence is measured using a plate reader, and the affinity or degree of inhibition by each test compound is determined.
(§4) The chosen compounds were further assayed to quantitatively determine the actual affinity for Bcl-xL, Bcl-2, and Bcl-w with a view to identifying candidate senolytic agents for use in treating age related conditions. FIGS. 2A, 2B, and 2C show the results of the binding assay, with those compounds towards the left of each graph having the highest affinity.

Another assay has as its target T2, Bcl-2 (Homo sapiens, UniProt P10415).
T2 construct: purchased Sigma-Aldrich Co., St. Louis, Mo
The experiment in a line: Bcl inhibition homogeneous (AlphaScreen) binding assay, Bcl-2. Particulars: read-out: Binding Affinities (Ki ± SD) Bcl-2.
From the text: as §1, §2, §3, §4
On the technique in general: Alpha assays give light when donor and acceptor beads are brought close together.

The target of the next assay is T3, Bcl-w (Homo sapiens, UniProt Q92843).
T3 construct: purchased Sigma-Aldrich Co., St. Louis, Mo
T3 sequence (Q92843 1-193): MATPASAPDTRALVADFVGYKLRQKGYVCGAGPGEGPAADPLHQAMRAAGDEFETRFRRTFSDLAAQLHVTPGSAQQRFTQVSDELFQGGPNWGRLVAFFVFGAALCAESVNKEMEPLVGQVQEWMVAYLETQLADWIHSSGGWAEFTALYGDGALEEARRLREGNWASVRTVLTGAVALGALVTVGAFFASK
The assay can be described thus: Bcl inhibition homogeneous (AlphaScreen) binding assay, Bcl-w. Particulars: read-out: Binding Affinities (Ki ± SD) Bcl-w.
From the text: as §1, §2, §3, §4

For assay [1], the system named is senescent fibroblasts (SnCs), IMR90 cells. The experiment in a line: Senolytic activity: killing senescent (irradiated) IMR90 fibroblasts, CellTiter-Glo. Particulars: for EC50: killing senescent (irradiated) fibroblasts in culture, read-out: Best SnCs EC50; for SI (specificity for senescent cells): senescent vs non-senescent cells of the same tissue type; for senolytic potency (EC50), in words: killing senescent cells. It is filed as cell-based, human. An excerpt: Human fibroblast IMR90 cells can be obtained from the American Type Culture Collection (ATCC®) with the designation CCL-186. The cells are maintained at <75% confluency in DMEM containing FBS and Pen/Strep in an atmosphere of 3% O2, 10% CO2, and 95% humidity. The cells are divided into three groups: irradiated cells (cultured for 14 days after irradiation prior to use), proliferating normal cells (cultured at low density for one day prior to use), and quiescent cells (cultured at high density for four day prior to use).
On day 0, the irradiated cells are prepared as follows. IMR90 cells are washed, placed in T175 flasks at a density of 50,000 cells per mL, and irradiated at 10-15 Gy. Following irradiation, the cells are plated at […] in 96-well plates. On days 1, 3, 6, 10, and 13, the medium in each well is aspirated and replaced with fresh medium.
On day 10, the quiescent healthy cells are prepared as follows. IMR90 cells are washed, covered with 3 mL of TrypLE trypsin-containing reagent (Thermofisher Scientific, Waltham, Mass.) and cultured for 5 min until the cells have rounded up and begin to detach from the plate. Cells are dispersed, counted, and prepared in medium at a concentration of 50,000 cells per mL. 100 µL of the cells is plated in each well of a 96-well plate. Medium is changed on day 13.
On day 13, the proliferating healthy cell population is prepared as follows. Healthy IMR90 cells are washed, covered with 3 mL of TrypLE and cultured for 5 minutes until the cells have rounded up and begin to detach from the plate. Cells are dispersed, counted, and prepared in medium at a concentration of 25,000 cells per mL. 100 µL of the cells is plated in each well of a 96-well plate.
On day 14, test senolytic agents are combined with the cells as follows. A DMSO dilution series of each test compound is prepared at 200 times the final desired concentration in a 96-well PCR plate. Immediately before use, the DMSO stocks are diluted 1:200 into prewarmed complete medium. Medium is aspirated from the cells in each well, and 100 µL/well of the compound containing medium is added.
The test senolytic agents are cultured with the cells for 6 days, replacing the culture medium with fresh medium and the same compound concentration on day 17. Bcl-2 inhibitors such as those tested in the examples that follow are cultured with the cells for 3 days. The assay system uses the properties of a thermostable luciferase to enable reaction conditions that generate a stable luminescent signal while simultaneously inhibiting endogenous ATPase released during cell lysis. At the end of the culture period, 100 µL of CellTiter-Glo@ reagent (Promega Corp., Madison, Wis.) is added to each of the wells. The cell plates are placed for 30 seconds on an orbital shaker, and luminescence is measured.
Furthermore, even if the compound is potent, it would not be suitable for use as a therapeutic unless it preferentially kills senescent cells with a high degree of selectivity. Accordingly, compounds in the library showing high Bcl binding affinity were further screened for their ability to kill irradiated fibroblasts, in comparison with replicating fibroblasts or fibroblasts that were quiescent (due to confluence) but not senescent.
(In general: ATP-based viability assays read luminescence as a measure of living cells.)

The target in the next assay is Bcl isoforms. The experiment in a line: Binding affinity for the Bcl isoforms. The following applies: Bcl-xL, Bcl-2, Bcl-w.
From the text: as §1, §2, §3, §4

T2 sequence (P10415 whole entry, species assumed): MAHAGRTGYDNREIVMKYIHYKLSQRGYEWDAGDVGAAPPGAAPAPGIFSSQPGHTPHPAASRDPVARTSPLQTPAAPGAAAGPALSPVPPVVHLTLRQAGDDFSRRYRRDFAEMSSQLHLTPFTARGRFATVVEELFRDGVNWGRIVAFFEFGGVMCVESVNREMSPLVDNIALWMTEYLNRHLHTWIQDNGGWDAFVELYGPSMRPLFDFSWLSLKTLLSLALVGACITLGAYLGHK
T1 sequence (Q07817 whole entry, species assumed): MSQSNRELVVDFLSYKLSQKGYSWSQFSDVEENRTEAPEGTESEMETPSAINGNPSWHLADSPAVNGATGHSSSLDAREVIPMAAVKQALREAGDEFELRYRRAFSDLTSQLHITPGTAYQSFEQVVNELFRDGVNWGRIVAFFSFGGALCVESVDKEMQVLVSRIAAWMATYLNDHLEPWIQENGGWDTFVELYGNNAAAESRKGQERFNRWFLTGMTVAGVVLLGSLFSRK

Turning to `CCn1c(C)c(C(=O)O)c(-c2cccc(N3CCN(c4ccc(NS(=O)(=O)c5ccc(N[C@H](CCN6CCC(O)CC6)CSc6ccccc6)c(S(=O)(=O)C(F)(F)F)c5)cc4)CC3)c2)c1-c1ccc(Cl)cc1` [BM-957], the Ki on Bcl-xL worked out at 0.0453 nM; at Bcl-2, 3.33 nM; at Bcl-w, 0.66 nM. The EC50 in assay [1] turned out to be 300 nM. Also, the “SI (specificity for senescent cells)” value in assay [1] is 11.7.

For the compound `Cc1c(C(=O)O)c(-c2cccc(N3CCN(c4ccc(NS(=O)(=O)c5ccc(N[C@H](CCN6CCC(O)CC6)CSc6ccccc6)c(S(=O)(=O)C(F)(F)F)c5)cc4)CC3)c2)c(-c2ccc(Cl)cc2)n1C(C)C` [BM-962], the Ki is 0.0574 nM at Bcl-xL, 3.39 nM on Bcl-2 and 0.538 nM on Bcl-w. In assay [1], the EC50 was 200 nM. Besides, the “SI (specificity for senescent cells)” value in assay [1] is given as 18.5.

In the case of `CCn1c(C)c(C(=O)NS(C)(=O)=O)c(-c2cccc(N3CCN(c4ccc(NS(=O)(=O)c5ccc(N[C@H](CCN(C)C)CSc6ccccc6)c([N+](=O)[O-])c5)cc4)CC3)c2)c1-c1ccc(Cl)cc1` [BM-1075], the Ki on Bcl-xL was found to be 0.00573 nM; on Bcl-2 it was 0.179 nM; on Bcl-w, 0.161 nM. Further, at Bcl isoforms, the “binding affinities (Ki) for the Bcl isoforms, in words” value (from here on “binding affinities (Ki)”) is listed as “nanomole to picomole range”. Besides, in assay [1], the EC50 is 300 nM. In addition, the “SI (specificity for senescent cells)” value in assay [1] is listed as 15.3.

For `CCn1c(C)c(S(C)(=O)=O)c(-c2cc(F)cc(N3CCN(c4ccc(NS(=O)(=O)c5ccc(N[C@H](CCN6CCC(O)CC6)CSc6ccccc6)c(S(=O)(=O)C(F)(F)F)c5)cc4)CC3)c2)c1-c1ccc(F)cc1` [BM-1192], in assay [1], the EC50 was 50 nM and the “SI (specificity for senescent cells)” value is 60.0.

As to `Cc1c(S(C)(=O)=O)c(-c2cc(F)cc(N3CCN(c4ccc(NS(=O)(=O)c5ccc(N[C@H](CCN6CCC(O)CC6)CSc6ccccc6)c(S(=O)(=O)C(F)(F)F)c5)cc4)CC3)c2)c(-c2ccc(F)cc2)n1C(C)C` [BM-1195], the Ki on Bcl-xL is 0.149 nM. For the same compound, at Bcl-2, the Ki worked out at 0.667 nM. Besides, at Bcl isoforms, the “binding affinities (Ki)” value is recorded as “nanomole to picomole range”. The Ki on Bcl-w turned out to be 0.175 nM. Besides, in assay [1], the EC50 amounted to 6 nM; the “senolytic potency (EC50), in words” value is “potent in the nanomole range”; the “SI (specificity for senescent cells)” value turned out to be 128.7.

For the compound `Cc1c(S(C)(=O)=O)c(-c2cc(F)cc(N3CCN(c4ccc(NS(=O)(=O)c5ccc(N[C@H](CCN6CCC(O)CC6)CSc6ccccc6)c(S(=O)(=O)C(F)(F)F)c5)cc4)CC3)c2)c(-c2ccc(Cl)cc2)n1C(C)C` [BM-1197], on Bcl-xL, the Ki was 0.295 nM. Moreover, the Ki at Bcl-2 is 0.448 nM. Also, the “binding affinities (Ki)” value at Bcl isoforms is on record as “nanomole to picomole range”. Moreover, the Ki on Bcl-w came to 0.292 nM. For the same compound, in assay [1], the EC50 came out at 5 nM; the “senolytic potency (EC50), in words” value is recorded as “potent in the nanomole range”; the “SI (specificity for senescent cells)” value amounted to 366.7.

In the case of `Cc1c(S(C)(=O)=O)c(-c2cc(F)cc(N3CCN(c4ccc(NS(=O)(=O)c5ccc(N[C@H](CCN6CCC(C(=O)O)CC6)CSc6ccccc6)c(S(=O)(=O)C(F)(F)F)c5)cc4)CC3)c2)c(-c2ccc(Cl)cc2)n1C(C)C` [BM-1244], the results for the Ki on Bcl-xL, on Bcl-2 and on Bcl-w were 0.135 nM, 0.451 nM and 0.357 nM, respectively. Also, the “binding affinities (Ki)” value on Bcl isoforms was “nanomole to picomole range”. In addition, the EC50 in assay [1] came to 300 nM. In addition, the “SI (specificity for senescent cells)” value in assay [1] came to 66.7.
